Measured values published in patent US11013714B2, “Use of homoeriodictyol (HED) for reducing the gastric acid secretion-stimulating effect of n-acetyl-4-aminophenol (Paracetamol)” (SYMRISE AG, priority 2016, dated 2021).
“And” between values parts separate entries of the source, which are not always exact repeats. Equal values may be shown once. Read-outs that look alike come from different tables or passages of the source.

How the values were obtained:
[1] = tested on: HGT-1 cells; conditions: cited from earlier work
[2] = tested on: HGT-1 cells; assay: Proton secretion in HGT-1 cells (intracellular pH, SNARF-1-AM dye); format: cell-based, human
Protocol: Human parietal cells (human gastric tumour cell line, HGT-1) were used as cellular model. These were provided by Dr. C. Laboisse (Laboratory of Pathological Anatomy, Nantes, France). The cells are cultured at standard conditions at 37° C., 5% CO2 in DMEM (Dulbecco's Modified […] Medium) with 4 g/L glucose, 10% FBS, 2% L-glutamine and 1% Penicillin/Streptomycin. For measuring the intracellular proton concentration, the cells are treated with Trypsin/EDTA, the cellular viability was determined with Trypan blue staining and 100 000 cells/well were seeded in black 96-well plates. […] The cells in the 96-well plates are washed once with Krebs-Hepes-buffer (KRHP) and incubated with the dye in a concentration of 3 μM dissolved in KRHP for 30 min at 37° C. and 5% CO2. Afterwards, the cells are washed twice with KRHP and substances stimulating gastric acid secretion, as for example 3 mM caffeine, 0.3 mM Theobromine or 3 mM Paracetamol alone or in combination with substances for reducing the gastric acid stimulating effect of the above substances, for example Homoeriodictyol (HED), in various concentrations in phenol red free DMEM in a volume of 100 μL were added; as a further control, the substances stimulating gastric acid secretion as named above were tested alone. Homoeriodictyol is dissolved in double distilled water. The final concentration of solvent, which is added to the cells, is at most 1%. The fluorescent dye is excited at the wave length of 488 nm and the emission is measured at 580 nm and 640 nm. […] For the calibration curve, the cells are treated with a potassium buffer in different pH values of from 7.2 to 8.2 and 2 μM Nigericin. Nigericin equilibrates the intracellular and extracellular pH value so that the intracellular pH value can be defined. The intracellular H^+-concentration is obtained from the intracellular pH value. The intracellular proton index (IPX) is calculated by log 2 transformation of the ratio of treated cells and untreated cells (control) ([…].; Somoza, M. M.; Hofmann, T.; Somoza, V., Mol Nutr Food Res 2012, 56, 325-335; Rubach, M.; Lang, R.; Hofmann, T.; Somoza, V., Ann N Y Acad Sci 2008, 1126, 310-4; […].; Hofmann, T.; Somoza, V., J Agric Food Chem 2010, 58, 4153-61; Weiss, […].; Blumberg, S.; Frank, O.; Hofmann, T.; Somoza, V., J Agric Food Chem 2010, 58, 1976-85; Liszt, K. I.; Walker, J.; Somoza, V., J Agric Food Chem 2012, 60, 7022-7030; Walker, J.; Hell, J.; Liszt, […].; Hofmann, T.; Somoza, V., J Agric Food Chem 2012, 60, 1405-12). The number of indicated replicates relates to technical replicates (tr) or the number of total replicates (n), which results from the number of technical replicates multiplied with the number of biological replicates. […] Statistics: one-way Anova with Holm-Sidak post-hoc test. Significant differences (p<0.05) are indicated by letters.

[3] = target: T1, TAS2R43 (Homo sapiens, UniProt P59537); assay: Own experiments on bitter receptor TAS2R43
T1 sequence (P59537 1-309): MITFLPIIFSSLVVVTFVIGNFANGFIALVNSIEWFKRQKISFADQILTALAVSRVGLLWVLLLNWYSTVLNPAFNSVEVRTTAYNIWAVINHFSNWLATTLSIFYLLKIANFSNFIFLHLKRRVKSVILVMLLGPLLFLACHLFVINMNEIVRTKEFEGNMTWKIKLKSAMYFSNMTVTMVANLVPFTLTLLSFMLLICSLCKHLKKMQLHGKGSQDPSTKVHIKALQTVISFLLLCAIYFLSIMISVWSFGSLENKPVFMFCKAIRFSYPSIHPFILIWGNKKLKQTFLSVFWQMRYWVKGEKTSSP

[4] = target: T2, TAS2R39 (Homo sapiens, UniProt P59534); conditions: Roland et al., J. Agric. Food Chem. 2013; cited from earlier work
T2 sequence (P59534 1-338): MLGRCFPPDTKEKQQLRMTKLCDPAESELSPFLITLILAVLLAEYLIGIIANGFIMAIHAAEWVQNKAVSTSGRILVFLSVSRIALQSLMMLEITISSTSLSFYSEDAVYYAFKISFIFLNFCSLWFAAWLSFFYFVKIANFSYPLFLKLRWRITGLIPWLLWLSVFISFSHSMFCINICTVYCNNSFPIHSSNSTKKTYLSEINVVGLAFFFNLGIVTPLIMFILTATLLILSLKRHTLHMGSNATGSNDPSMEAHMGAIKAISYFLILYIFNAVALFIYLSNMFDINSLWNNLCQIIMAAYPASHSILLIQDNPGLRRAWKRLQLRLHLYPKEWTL

Cn1c(=O)c2c(ncn2C)n(C)c1=O [Caffeine, caffeine, reference compound]
percentage increase (positive values) or decrease (negative values) of the proton secretion, mean ([1]; 3 mM caffeine alone (DMEM), 10 minutes stimulation): 54.80% | percentage increase (positive values) or decrease (negative values) of the proton secretion, mean ([1]; 3 mM caffeine alone (DMEM), 10 minutes stimulation, listed as caffeine): 55%

COc1cc(C2CC(=O)c3c(O)cc(O)cc3O2)ccc1O (centres unmarked) [HED, 3′-Methoxy-4′,5,7-trihydroxy flavanone]
percentage increase (positive values) or decrease (negative values) of the proton secretion, mean ([2]; 3 mM Paracetamol + 0.003 mM HED, 10 minutes): 10.96% | percentage increase (positive values) or decrease (negative values) of the proton secretion, mean ([2]; 3 mM Paracetamol + 0.03 mM HED, 10 minutes): 7% and 6.57% | percentage increase (positive values) or decrease (negative values) of the proton secretion, mean ([2]; 3 mM Paracetamol + 0.3 mM HED, 10 minutes): −46.24% | effect on constitutive acid secretion ([2]; 3 mM Paracetamol, addition of 0.3 mM HED, compared to control without active substances): significant reduction of the constitutive acid secretion | proton secretion induced by 3 mM Paracetamol ([2]; addition of 0.003 or 0.03 mM HED): reduced | proton secretion increased by ([2]; simultaneous incubation with 3 mM Paracetamol and 0.003 mM HED): 11% | proton secretion reduced by ([2]; simultaneous incubation with 3 mM Paracetamol and 0.3 mM HED): 46% | effect at receptor type TAS2R43 [3]: antagonist | percentage increase (positive values) or decrease (negative values) of the proton secretion, mean ([1]; 0.3 mM Theobromine + 0.003 mM HED, 10 minutes): 21.56% | percentage increase (positive values) or decrease (negative values) of the proton secretion, mean ([1]; 0.3 mM Theobromine + 0.03 mM HED, 10 minutes): 14% and 13.79% | percentage increase (positive values) or decrease (negative values) of the proton secretion, mean ([1]; 0.3 mM Theobromine + 0.3 mM HED, 10 minutes): −16.92% | percentage increase (positive values) or decrease (negative values) of the proton secretion, mean ([1]; 3 mM caffeine + 0.03 mM HED, 10 minutes): 38% | percentage increase (positive values) or decrease (negative values) of the proton secretion, mean ([1]; 3 mM caffeine + 0.3 mM HED, 10 minutes): 20% and 20.20% | proton secretion decreased by ([1]; simultaneous incubation with 0.3 mM Theobromine and 0.3 mM HED): 17% | effect on the proton secretion in HGT-1-cells ([1]; sole HED, without gastric acid secretion-stimulating substances (WO 2014111436 A1)): no significant effect | effect at receptor type TAS2R39 [4]: agonist

CC(=O)Nc1ccc(O)cc1 [Paracetamol, N-(4-Hydroxyphenyl)acetamide]
percentage increase (positive values) or decrease (negative values) of the proton secretion, mean ([2]; 3 mM Paracetamol alone (DMEM), 10 minutes stimulation): 24% and 24.10%

Cn1cnc2c1c(=O)[nH]c(=O)n2C [Theobromine, reference compound]
percentage increase (positive values) or decrease (negative values) of the proton secretion, mean ([1]; 0.3 mM Theobromine alone (DMEM), 10 minutes stimulation): 21% and 20.92%
